For series [1], the system named is CYP3A4. Description: Paclitaxel metabolism in primary human hepatocytes (LC/MS/MS). The format is in vitro ADME. Particulars: 10 µM SPA70, 1 µM PTX, 24 or 48 h. Here is the method: Calibration and quality-control samples were prepared.
The target in series [2] is T1, hPXR (Homo sapiens, UniProt O75469).
T1 sequence (O75469 1-434): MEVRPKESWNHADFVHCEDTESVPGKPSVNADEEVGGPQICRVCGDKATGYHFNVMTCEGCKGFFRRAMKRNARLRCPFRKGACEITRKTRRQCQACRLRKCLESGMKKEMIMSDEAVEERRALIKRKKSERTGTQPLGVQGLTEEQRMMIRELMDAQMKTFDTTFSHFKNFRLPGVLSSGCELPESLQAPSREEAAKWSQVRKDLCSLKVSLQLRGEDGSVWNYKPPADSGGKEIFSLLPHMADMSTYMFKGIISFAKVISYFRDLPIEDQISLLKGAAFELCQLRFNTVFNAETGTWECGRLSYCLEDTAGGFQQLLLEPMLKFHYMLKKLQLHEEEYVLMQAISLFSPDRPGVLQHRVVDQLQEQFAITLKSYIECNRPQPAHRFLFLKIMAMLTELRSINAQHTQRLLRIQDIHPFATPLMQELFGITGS
Description: hPXR transactivation assay, HepG2 stable cell line, agonistic mode.

The target in series [3] is T2, mPXR (Mus musculus, UniProt O54915).
T2 construct: host or cells: Hepa 1-6
The series can be described thus: mPXR transactivation assay. Particulars: only at concentrations higher than 5 µM. The format is cell-based. How it is done:
For the mPXR transactivation assay, Hepa 1-6 cells were co-transfected with pCMV6-mPXR (Cat. No. MR226044, OriGene Technologies, Rockville, MD), pGL3-CYP3A4-luc and pRL-TK by using Lipofectamine 3000. […] The relative luciferase activity was determined by normalizing the firefly luciferase signal to the Renilla luciferase signal. The final DMSO concentration was 0.3% in all assay wells. In the agonistic assays, 10 μM PCN and DMSO were used as the positive (100% activation) and negative control (0% activation), respectively. […] Compound activity was normalized to the controls.

For series [4], the system named is Hepa 1-6 cells. The series can be described thus: One- and 3-day cytotoxicity assay. As to conditions: Hepa 1-6, one- and 3-day. The format is cell-based, mouse. How it is done: After the plated had been incubated for 24 or 72 h at 37 °C, the cytotoxicity was determined using a CellTiter-Glo luminescent cell viability assay (Promega). […] The final DMSO concentration was 0.5% for all wells.

Series [5] concerns hPXR. The series can be described thus: Liver Cyp3a11 mRNA and protein in hPXR transgenic mice. It counts as in vivo, mouse. Particulars: hPXR humanized transgenic mice, SPA70 200 mg kg−1, RIF 10 mg kg−1, 72 h. Here is the method:
Cells were rinsed once with cold PBS then lysed in RIPA lysis buffer (Thermo Fisher Scientific) containing protease inhibitor (Roche). Mouse liver samples were homogenized in 500 μl of cold RIPA lysis buffer in a Bullet Blender Blue homogenizer (Next Advance, Averill Park, NY). Then, 25 μg of total protein lysates were loaded onto NuPAGE 4%–12% Bis-Tris gels (Invitrogen) with NuPAGE MES SDS running buffer (Invitrogen). The proteins were transferred from the gel to a nitrocellulose membrane by using the iBlot gel-transfer system (Invitrogen). […] The relative intensity of each protein band was then determined by normalizing the intensity of each protein band to that of actin. […]
The method used for RNA extraction and polymerase chain reaction with reverse transcription (RT-PCR) has been described previously. […] Quantitative RT-PCR was performed in accordance with the manufacturer’s protocol by using TaqMan gene expression assays (Thermo Fisher Scientific) specific for the hPXR and Cyp3a11 genes, with GAPDH or 18s rRNA as the reference gene, in an ABI 7900HT Fast Real-Time PCR System (Thermo Fisher Scientific). […] The comparative threshold (Ct) method was used for the relative quantification of gene expression by the following formulae: ΔCt = Ct (test gene) − Ct (GAPDH); ΔΔCt (test gene) = ΔCt (test gene in treatment group) − ΔCt (test gene in vehicle control group). […]

“Also recorded” adds a separate entry of the source.

T2 sequence (O54915 whole entry): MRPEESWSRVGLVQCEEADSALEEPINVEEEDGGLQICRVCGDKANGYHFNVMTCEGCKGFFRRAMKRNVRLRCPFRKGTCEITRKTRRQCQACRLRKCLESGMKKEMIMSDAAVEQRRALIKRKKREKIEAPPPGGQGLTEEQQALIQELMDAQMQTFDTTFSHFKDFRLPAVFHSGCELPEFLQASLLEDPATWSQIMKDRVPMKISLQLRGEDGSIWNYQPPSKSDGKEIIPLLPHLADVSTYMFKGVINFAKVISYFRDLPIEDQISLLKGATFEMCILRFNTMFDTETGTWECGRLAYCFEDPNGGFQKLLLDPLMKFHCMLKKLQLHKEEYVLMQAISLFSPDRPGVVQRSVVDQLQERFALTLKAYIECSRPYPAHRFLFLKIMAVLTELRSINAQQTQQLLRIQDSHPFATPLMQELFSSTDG

`COc1ccc(OC)c(-n2nnc(S(=O)(=O)c3ccc(C(C)(C)C)cc3)c2C)c1` [SPA70]: the “Effect on metabolism of paclitaxel to 3′-p-hydroxypaclitaxel or 6α-hydroxypaclitaxel” value in series [1] is listed as “substantially blocked”. In series [2], the “Effect on basal activity of hPXR” value is on record as “very weakly inhibited the basal activity”. Also, in series [3], the mPXR agonism entry is recorded as “very weak mPXR agonist; also recorded: weak agonist of mPXR”. Further, the Cytotoxicity result in series [4] is given as “marginal cytotoxicity”. In addition, the “Effect on rifampicin-induced expression of Cyp3a11 (mRNA and protein)” value in series [5] is “effectively blocked the rifampicin-induced expression of Cyp3a11”.

The record behind these values is publication PMC5622171 (Nature Communications, 2017).
